Patent US20110280886A1, “TREATING CANCER BY MODULATING MNK” (UNIVERSITY HOSPITAL BASEL, priority 2008, published 2011)

Assays:
[1] = tested on: phosphorylated eIF4E; conditions: cells transfected with Mnk2 (Mnk2a or Mnk2b) or Mnk1; cited from earlier work
[2] = tested on: LN319 cells; experiment: MTT-based cell proliferation assay, LN319 cells; parameters: species or system human; conditions: 10 μM CGP57380 with increasing amounts of rapamycin, 5 days after treatment
Protocol: (§1) Cell proliferation was assayed using MTT-based method 5 days after treatment. Growth in untreated cells was used as a reference. Data shown are the mean±SD values of at least three separate experiments.
(§2) Human brain tumor cell lines; BS125 and LN319 were derived from human patients. The “BS” series were generated at the University of Basel, Switzerland while the “LN” series was generated in Lausanne, Switzerland (Ishii et al., […], Brain Pathol. 9:469-79). These cells were cultured in DMEM supplemented with 10% FCS and standard antibiotics in an incubator at 37° C. and 5% CO2 humidified atmosphere. Transfection was accomplished using Lipofectamine (Invitrogen) according to the supplier's instructions. For overexpression experiments, previously reported MNK1-Flag construct (Knauf et al., 2001, Mol Cell Biol. 21:5500-11) were used. […]
(§3) For cell proliferation MTT-based assays in 96-well plates, about ˜5000 cells were seeded 1 day before drug treatment. […] The number of viable cells was measured using CellTiter 96® AQueous Non-Radioactive Cell Proliferation Assay (Promega) used according to manufacturer's instruction. In addition, cell growth was also monitored by counting cell number with a Vi-Cell XR cell viability analyzer (Beckman Coulter). […] Cells were counted every day over a 5-day period.

[3] = tested on: BS125 cells; experiment: MTT-based cell proliferation assay, BS125 cells; parameters: species or system human; conditions: 10 μM CGP57380 with increasing amounts of rapamycin, 5 days after treatment
Protocol: as §1, §2, §3

[4] = molecular target: human Mnk2 protein (Homo sapiens, UniProt Q9HBH9); conditions: described in WO 02/103361; cited from earlier work
Chain of human Mnk2 protein (Q9HBH9 whole entry): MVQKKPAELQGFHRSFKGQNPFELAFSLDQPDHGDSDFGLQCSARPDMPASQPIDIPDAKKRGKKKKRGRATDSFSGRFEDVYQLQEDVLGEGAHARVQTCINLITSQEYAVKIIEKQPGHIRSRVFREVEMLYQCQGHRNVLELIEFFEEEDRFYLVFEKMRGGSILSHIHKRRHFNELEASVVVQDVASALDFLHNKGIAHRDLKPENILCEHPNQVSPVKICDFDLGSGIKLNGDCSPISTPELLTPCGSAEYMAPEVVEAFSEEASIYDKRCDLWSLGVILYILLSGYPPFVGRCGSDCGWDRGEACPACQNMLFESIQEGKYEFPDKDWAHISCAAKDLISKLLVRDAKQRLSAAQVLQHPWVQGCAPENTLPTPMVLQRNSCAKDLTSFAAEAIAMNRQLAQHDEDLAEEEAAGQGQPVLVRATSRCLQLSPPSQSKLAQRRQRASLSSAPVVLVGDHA

For `Nc1ncnc2n[nH]c(Nc3ccc(F)cc3)c12` [CGP57380], the “reduction of phosphorylated eIF4E” value [1] is given as “strong reduction of phosphorylated eIF4E”, the “inhibitory effect on cell proliferation” value [2] is given as “significantly increases the inhibitory effect on cell proliferation” and the “inhibitory effect on cell proliferation” value [3] is given as “significantly increases the inhibitory effect on cell proliferation”.
In the case of `COC(=O)c1ccc(O)cc1` [4-hydroxybenzoic acid methyl ester], the “binding to human Mnk2 protein” value [4] is given as “binds the human Mnk2 protein”.
